In patent publication US20130345218A1 (Vertex Pharmaceuticals Incorporated, priority 2010, published 2013):
Read-outs that look alike come from different tables or passages of the source.

Assays:
[1] = system: influenza A virus (A/PR/8/34) minus-strand viral RNA; test: microbe, parasite or virus in culture; assay type: cell-based; settings: mean EC50 (mean all), viral RNA by bDNA, read-out: bDNA EC50
[2] = system: influenza A virus (A/PR/8/34); test: microbe, parasite or virus in culture; assay type: cell-based; settings: Influenza A virus, PR/8, MDCK, 72 h, mean IC50 (mean all); MDCK cells, A/PR/8/34, 72 hours; read-out: Flu, MDCK IC50

`O=C(O)C1C2CCC(CC2)C1Nc1cnnc(-c2c[nH]c3ncc(F)cc23)n1` (racemic) [Compound I-42, (+/−)-3-[[3-(5-fluoro-1H-pyrrolo[2,3-b]pyridin-3-yl)-1,2,4-triazin-5-yl]amino]bicyclo[2.2.2]octane-2-carboxylic acid] showed an EC50 ([1]; Influenza A virus, PR/8) of under 3.3 µM and an IC50 [2] of under 3.3 µM.
With `O=C(O)[C@H]1C2CCC(CC2)[C@@H]1Nc1nc(-c2c[nH]c3ncc(Cl)cc23)c(F)cc1F` [Compound I-34, (2S,3S)-3-((6-(5-chloro-1H-pyrrolo[2,3-b]pyridin-3-yl)-3,5-difluoropyridin-2-yl)amino)-bicyclo[2.2.2]octane-2-carboxylic acid] the EC50 ([1]; Influenza A virus, PR/8) was under 3.3 µM and the IC50 [2] was under 3.3 µM.
`COCC(=O)N[C@@H]1CCC[C@H](Nc2ncc(C#N)c(-c3c[nH]c4ncc(C(F)(F)F)cc34)n2)C1` [Compound I-9, N-((1R,3S)-3-((5-cyano-4-(5-(trifluoromethyl)-1H-pyrrolo[2,3-b]pyridin-3-yl)pyrimidin-2-yl)amino)cyclohexyl)-2-methoxyacetamide] was tested, and the EC50 ([1]; Influenza A virus, PR/8) was under 3.3 µM and the IC50 [2] was under 3.3 µM.
In the case of `O=C(N[C@@H]1CCC[C@H](Nc2nc(-c3c[nH]c4ncc(F)cc34)c(F)cc2F)C1)c1ccsc1` [Compound I-47, N-((1R,3S)-3-((3,5-difluoro-6-(5-fluoro-1H-pyrrolo[2,3-b]pyridin-3-yl)pyridin-2-yl)amino)cyclohexyl)thiophene-3-carboxamide], the EC50 ([1]; Influenza A virus, PR/8) is reported as under 3.3 µM and the IC50 [2] is reported as under 3.3 µM.
In the case of `O=C(O)[C@H]1C2CCC(CC2)[C@@H]1Nc1cncc(-c2c[nH]c3ncc(F)cc23)n1` (mixture of isomers) [Compound I-38], the EC50 ([1]; Influenza A virus, PR/8) is reported as under 3.3 µM and the IC50 [2] is reported as under 3.3 µM.
`COC(=O)[C@H]1C2CCC(CC2)[C@@H]1Nc1nc(-c2c[nH]c3ncc(Cl)cc23)c(F)cc1F` [Compound I-33, (2S,3S)-methyl 3-((6-(5-chloro-1H-pyrrolo[2,3-b]pyridin-3-yl)-3,5-difluoropyridin-2-yl)amino)bicyclo[2.2.2]octane-2-carboxylate] gave an EC50 ([1]; Influenza A virus, PR/8) of under 3.3 µM and an IC50 [2] of under 3.3 µM.
For `O=C(N[C@@H]1CCC[C@H](Nc2nc(-c3c[nH]c4ncc(F)cc34)c(C(F)(F)F)cc2F)C1)N1CCCC1` (stereo in doubt) [Compound I-20, N-((1R,3S)-3-((3-fluoro-6-(5-fluoro-1H-pyrrolo[2,3-b]pyridin-3-yl)-5-(trifluoromethyl)-pyridin-2-yl)amino)cyclohexyl)pyrrolidine-1-carboxamide], the EC50 ([1]; Influenza A virus, PR/8) was under 3.3 µM and the IC50 [2] was under 3.3 µM.
Compound `N#Cc1cc(F)c(NC2C3CCC(CC3)C2C(=O)O)cc1-c1c[nH]c2ncc(F)cc12` (racemic) [Compound I-51, (+/−)-3-((4-cyano-2-fluoro-5-(5-fluoro-1H-pyrrolo[2,3-b]pyridin-3-yl)phenyl)amino)bicyclo[2.2.2]octane-2-carboxylic acid] has an EC50 ([1]; Influenza A virus, PR/8) of under 3.3 µM and an IC50 [2] of under 3.3 µM.
With `C[C@@H]1CCN(C(=O)N[C@@H]2CCC[C@H](Nc3nc(-c4c[nH]c5ncc(F)cc45)c(F)cc3F)C2)C1` [Compound I-16, (R)—N-((1R,3S)-3-((3,5-difluoro-6-(5-fluoro-1H-pyrrolo[2,3-b]pyridin-3-yl)-pyridin-2-yl)amino)cyclohexyl)-3-methylpyrrolidine-1-carboxamide] the EC50 ([1]; Influenza A virus, PR/8) was under 3.3 µM and the IC50 [2] was under 3.3 µM.
In the case of `O=C(O)[C@@H]1C2CCC(CC2)[C@H]1Nc1nc(-c2c[nH]c3ncc(Cl)cc23)c(F)cc1F` [Compound I-32], the EC50 ([1]; Influenza A virus, PR/8) is reported as under 3.3 µM and the IC50 [2] is reported as under 3.3 µM.
Work on `COC(=O)[C@@H]1C2CCC(CC2)[C@H]1Nc1nc(-c2c[nH]c3ncc(Cl)cc23)c(F)cc1F` [Compound I-31] yielded an EC50 ([1]; Influenza A virus, PR/8) of over 3.3 µM and an IC50 [2] of at least 3.3 µM.
`N#Cc1cnc(N[C@H]2CCC[C@@H](C(=O)O)C2)nc1-c1c[nH]c2ncccc12` [Compound I-5] was tested, and the IC50 [2] was at least 3.3 µM.
For “(+/−)-(exo)-7-((3,5-difluoro-6-(5-fluoro-1H-pyrrolo[2,3-b]pyridin-3-yl)pyridin-2-yl)amino)bicyclo[3.2.2]nonane-6-carboxylic acid [Compound I-36]”, the EC50 [1] was under 3.3 µM.
Work on `O=C(O)[C@@H]1C2CCC(CC2)[C@H]1Nc1nc(-c2c[nH]c3ncc(F)cc23)c(F)cc1F` [Compound I-27] yielded an EC50 [1] of under 3.3 µM.
